Assay results reported in patent US7462600B2, “Macrolides” (Pfizer Inc, priority 2004, dated 2008).
≈ marks a conversion by molar mass, not a printed value. Where two headings read alike, the source gives them in different places.

How the values were obtained:
Format in all cases: cell-based
[1] = test system: Streptococcus pyogenes 1079; assay: MIC, microtiter broth dilution (NCCLS M100-S14), S. pyogenes 1079 (ermB)
In short: (§1)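 Antibacterial activity is expressed as the MIC from broth microdilution. Reading follows the NCCLS M100-S14 performance standards, and stocks are made in DMSO at 40 mg/ml.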

[2] = test system: Streptococcus pneumoniae 1016; assay: MIC, microtiter broth dilution (NCCLS M100-S14), S. pneumoniae 1016 (susceptible)
In short: as §1

[3] = test system: Streptococcus pneumoniae 1095; conditions: microtiter broth dilution
In short: as §1

[4] = test system: Streptococcus pneumoniae 1175; conditions: microtiter broth dilution
In short: as §1

[5] = test system: Haemophilus influenzae 1218; assay: MIC, microtiter broth dilution (NCCLS M100-S14), H. influenzae 1218 (susceptible)
In short: as §1

[6] = S. pneumoniae 1016 (susceptible)
[7] = H. influenzae 1218 (susceptible)

Row | Compound | MIC S. pyogenes 1079 ([1]; Streptococcus pyogenes 1079) | MIC S. pneumo. 1016 ([2]; Streptococcus pneumoniae 1016) | MIC S. pneumo. 1095 ([3]; Streptococcus pneumoniae 1095) | MIC S. pneumo. 1175 ([4]; Streptococcus pneumoniae 1175) | MIC H. influenzae 1218 ([5]; Haemophilus influenzae 1218) | MIC S. pyogenes 1079 ([1]; S. pyogenes 1079 (ermB)) | MIC S. pneumo. 1016 [2, 6] | MIC S. pneumo. 1095 ([3]; S. pneumoniae 1095 (ermB)) | MIC S. pneumo. 1175 ([4]; S. pneumoniae 1175 (mefA)) | MIC H. influenzae 1218 [5, 7]
1 | CC[C@H]1OC(=O)[C@H](C)[C@@H](OC(=O)N2CCCC2c2cccc(F)c2)[C@H](C)[C@@H](O[C@@H]2O[C@H](C)C[C@H](N(C)C)[C@H]2O)[C@](C)(OC)C[C@@H](C)C(=O)[C@H](C)[C@H]2N(CC3CN(Cc4c[nH]c5ncccc45)C3)C(=O)O[C@]12C (some centres unmarked) [Example 5.06, 3-descladinosyl-11,12-dideoxy-4-O-methyl-12,11-(oxycarbonyl-(1-((1H-pyrrolo[2,3-b]pyridin-3-yl)-methyl)-(azetidin-3-yl)-methyl)-imino)-3-((2-(3-fluorophenyl)-pyrrolidine)-1-carbonyl)-erythromycin A] | 0.25 µg/mL (≈ 0.249 µM) | <0.06 µg/mL | <0.06 µg/mL | <0.06 µg/mL | 2 µg/mL (≈ 1.99 µM) |  |  |  |  | 
2 | CCC1OC(=O)C(C)C(=O)C(C)C(OC2OC(C)CC(N(C)C)C2O)C(C)(OC)CC(C)C(=O)C(C)C2N(CC3CN(S(=O)(=O)c4cccc(C#N)c4)C3)C(=O)OC12C (centres unmarked) [4.07] | >64.00 µg/mL | <0.06 µg/mL | 24 µg/mL (≈ 28.3 µM) | 0.19 µg/mL (≈ 0.224 µM) | 1 µg/mL (≈ 1.18 µM) |  |  |  |  | 
3 | CCC1OC(=O)C(C)C(=O)C(C)C(OC2OC(C)CC(N(C)C)C2O)C(C)(OC)CC(C)C(=O)C(C)C2N(C3CN(S(=O)(=O)c4ccc5ncsc5c4)C3)C(=O)OC12C (centres unmarked) [Example 3.79] | 1 µg/mL (≈ 1.16 µM) | <0.06 µg/mL | <0.06 µg/mL | <0.06 µg/mL | 0.25 µg/mL (≈ 0.289 µM) |  |  |  |  | 
4 | CCC1OC(=O)C(C)C(=O)C(C)C(OC2OC(C)CC(N(C)C)C2O)C(C)(OC)CC(C)C(=O)C(C)C2N(CC3CCN(C(=O)c4ccc5ncccc5c4)C3)C(=O)OC12C (centres unmarked) [11.18] |  |  |  |  |  | >64.00 µg/mL | <0.06 µg/mL | 8 µg/mL (≈ 9.4 µM) | 2 µg/mL (≈ 2.35 µM) | 2 µg/mL (≈ 2.35 µM)
5 | CCC1OC(=O)C(C)C(=O)C(C)C(OC2OC(C)CC(N(C)C)C2O)C(C)(OC)CC(C)C(=O)C(C)C2N(CC3CCN(Cc4ccno4)CC3)C(=O)OC12C (centres unmarked) [15.09] |  |  |  |  |  | >64.00 µg/mL | <0.06 µg/mL | >64.00 µg/mL | 0.5 µg/mL (≈ 0.632 µM) | 16 µg/mL (≈ 20.2 µM)
6 | CCC1OC(=O)C(C)C(=O)C(C)C(OC2OC(C)CC(N(C)C)C2O)C(C)(OC)CC(C)C(=O)C(C)C2N(C3CN(Cc4ccnc5ncsc45)C3)C(=O)OC12C (centres unmarked) [Example 1.35, 3-descladinosyl-11,12-dideoxy-6-O-methyl-3-oxo-12,11-(oxycarbonyl-(1-((thiazolo[4,5-b]pyridin-7-yl)-methyl)-azetidin-3-yl)-imino)erythromycin A] | 4 µg/mL (≈ 4.9 µM) | <0.06 µg/mL | <0.06 µg/mL | 0.12 µg/mL (≈ 0.147 µM) | 1 µg/mL (≈ 1.23 µM) |  |  |  |  | 
7 | CCC1OC(=O)C(C)C(=O)C(C)C(OC2OC(C)CC(N(C)C)C2O)C(C)(OC)CC(C)C(=O)C(C)C2N(C3CN(S(=O)(=O)c4ccc(F)c(C#N)c4)C3)C(=O)OC12C (centres unmarked) [Example 3.77, 3-descladinosyl-11,12-dideoxy-6-O-methyl-3-oxo-12,11-(oxycarbonyl-(1-(3-cyano-4-fluorobenzenesulfonyl)-azetidin-3-yl)-imino)-erythromycin A] | 8 µg/mL (≈ 9.4 µM) | <0.06 µg/mL | <0.06 µg/mL | <0.06 µg/mL | 1 µg/mL (≈ 1.18 µM) |  |  |  |  | 
8 | CCC1OC(=O)C(C)C(=O)C(C)C(OC2OC(C)CC(N(C)C)C2O)C(C)(OC)CC(C)C(=O)C(C)C2N(C3CN(S(=O)(=O)c4ccc(-c5ccn[nH]5)cc4)C3)C(=O)OC12C (centres unmarked) [Example 3.39, 3-descladinosyl-11,12-dideoxy-6-O-methyl-3-oxo-12,11-(oxycarbonyl-(1-(4-(1H-pyrazol-5-yl)benzenesulfonyl)-azetidin-3-yl)-imino)-erythromycin A] | 0.25 µg/mL (≈ 0.286 µM) | <0.06 µg/mL | <0.06 µg/mL | <0.06 µg/mL | 0.5 µg/mL (≈ 0.572 µM) |  |  |  |  | 
9 | CCC1OC(=O)C(C)C(=O)C(C)C(OC2OC(C)CC(N(C)C)C2O)C(C)(OC)CC(C)C(=O)C(C)C2N(C3CN(S(=O)(=O)c4ccc(OC)c5nccnc45)C3)C(=O)OC12C (centres unmarked) [Example 3.112, 3-descladinosyl-11,12-dideoxy-6-O-methyl-3-oxo-12,11-(oxycarbonyl-(1-(8-methoxyquinoxaline-5-sulfonyl)-azetidin-3-yl)-imino)erythromycin A] | 0.125 µg/mL (≈ 0.14 µM) | <0.063 µg/mL | <0.063 µg/mL | 0.25 µg/mL (≈ 0.281 µM) | 2 µg/mL (≈ 2.25 µM) |  |  |  |  | 
10 | CCC1OC(=O)C(C)C(=O)C(C)C(OC2OC(C)CC(N(C)C)C2O)C(C)(OC)CC(C)C(=O)C(C)C2N(C3CN(S(=O)(=O)c4cccc5cnncc45)C3)C(=O)OC12C (centres unmarked) [Example 3.92, 3-descladinosyl-11,12-dideoxy-6-O-methyl-3-oxo-12,11-(oxycarbonyl-(1-(phthalazine-5-sulfonyl)-azetidin-3-yl)-imino)-erythromycin A] | 4 µg/mL (≈ 4.65 µM) | <0.06 µg/mL | <0.06 µg/mL | <0.06 µg/mL | 1 µg/mL (≈ 1.16 µM) |  |  |  |  | 
11 | CCC1OC(=O)C(C)C(=O)C(C)C(OC2OC(C)CC(N(C)C)C2O)C(C)(OC)CC(C)C(=O)C(C)C2N(CC3CCCN3Cc3cccc4cnccc34)C(=O)OC12C (centres unmarked) [10.03] |  |  |  |  |  | 64 µg/mL (≈ 76.5 µM) | <0.06 µg/mL | 0.25 µg/mL (≈ 0.299 µM) | 0.25 µg/mL (≈ 0.299 µM) | 8 µg/mL (≈ 9.56 µM)
12 | CCC1OC(=O)C(C)C(=O)C(C)C(OC2OC(C)CC(N(C)C)C2O)C(C)(OC)CC(C)C(=O)C(C)C2N(CC3CN(Cc4cnn5ccccc45)C3)C(=O)OC12C.O=CO (centres unmarked) [4.42] | >64.00 µg/mL | <0.06 µg/mL | 0.5 µg/mL | <0.06 µg/mL | 0.12 µg/mL |  |  |  |  | 
13 | CCC1OC(=O)C(C)C(=O)C(C)C(OC2OC(C)CC(N(C)C)C2O)C(C)(OC)CC(C)C(=O)C(C)C2N(C3CN(S(=O)(=O)c4cccc(C#N)c4)C3)C(=O)OC12C (centres unmarked) [Example 3.10, 3-descladinosyl-11,12-dideoxy-6-O-methyl-3-oxo-12,11-(oxycarbonyl-(1-(3-cyanobenzenesulfonyl)-azetidin-3-yl)-imino)-erythromycin A] | 4 µg/mL (≈ 4.8 µM) | <0.06 µg/mL | <0.06 µg/mL | <0.06 µg/mL | 0.25 µg/mL (≈ 0.3 µM) |  |  |  |  | 
14 | CC[C@H]1OC(=O)[C@H](C)[C@@H](OC(=O)N2CCCC2)[C@H](C)[C@@H](O[C@@H]2O[C@H](C)C[C@H](N(C)C)[C@H]2O)[C@](C)(OC)C[C@@H](C)C(=O)[C@H](C)[C@H]2N(CC3CN(Cc4c[nH]c5ncccc45)C3)C(=O)O[C@]12C [Example 5.10, 3-descladinosyl-11,12-dideoxy-6-O-methyl-12,11-(oxycarbonyl-(1-((1H-pyrrolo[2,3-b]pyridin-3-yl)-methyl)-(azetidin-3-yl)-methyl)-imino)-3-(pyrrolidine-1-carbonyl)-erythromycin A] | 2 µg/mL (≈ 2.2 µM) | <0.06 µg/mL | <0.06 µg/mL | <0.06 µg/mL | 1 µg/mL (≈ 1.1 µM) |  |  |  |  | 
15 | CCC1OC(=O)C(C)C(=O)C(C)C(OC2OC(C)CC(N(C)C)C2O)C(C)(OC)CC(C)C(=O)C(C)C2N(CC3CN(Cc4cnc5ncccn45)C3)C(=O)OC12C (centres unmarked) [4.26] | >64.00 µg/mL | <0.06 µg/mL | 2 µg/mL (≈ 2.46 µM) | 2 µg/mL (≈ 2.46 µM) | 0.25 µg/mL (≈ 0.308 µM) |  |  |  |  | 
16 | CCC1OC(=O)C(C)C(=O)C(C)C(OC2OC(C)CC(N(C)C)C2O)C(C)(OC)CC(C)C(=O)C(C)C2N(CC3CCN(Cc4cnn(-c5ccccn5)c4)C3)C(=O)OC12C (centres unmarked) [11.14] |  |  |  |  |  | 32 µg/mL (≈ 37.5 µM) | <0.06 µg/mL | 0.25 µg/mL (≈ 0.293 µM) | 0.25 µg/mL (≈ 0.293 µM) | 2 µg/mL (≈ 2.34 µM)
